The test system of one data set is gastric mucosa. Kind of data set: Ulcerogenic liability (ulcer index). The class given is in vivo, albino mice. The note with it: orally, three successive days, 10 mg/kg indomethacin mol equivalent; for Number of animals with ulcer: 6 animals per group; for Ulcer index: sum of the three values. In short, it runs like this:
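Albino mice were fasted 18 h before dosing, and controls got saline with a few drops of Tween 80. Gastric mucosa was checked under a 10× lens for lesions and erosions. The ulcer index combines percentage incidence divided by 10, mean ulcers per stomach and mean severity.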

The test system of data set [1] is lipopolysaccharide-stimulated peritoneal macrophages. Kind of data set: Production of nitric oxide by lipopolysaccharide-stimulated peritoneal macrophages (Greiss reagent). Format: cell-based. Also on record: Potency (%): % inhibition of nitric oxide production relative to lipopolysaccharide-stimulated macrophages: concentration or dose not given beside the values. The note with it: LPS-stimulated peritoneal macrophages; for Nitric oxide (nitrite) concentration, μM (average ± SD): 24 h, nitrite by Greiss reagent. The method in brief: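 Macrophages in nitrite-free medium with 0.1% BSA were stimulated with LPS at 0.5–10 ng/ml, some wells also receiving epinephrine, norepinephrine or dopamine at […], for 24 h at 37° C. Nitrite in supernatants was measured with Greiss reagent, 15 min at room temperature, absorbance 532 nm.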

Data set [2] deals with A-549 (lung) carcinoma cell line. The experiment in a line: Anti-tumor properties, MTT. The class given is cell-based. The note with it: Homo sapiens, A549.
For data set [3], the system named is carrageenan induced paw edema. Kind of data set: Anti-inflammatory activity: acute carrageenan induced paw edema in rats. Format: in vivo, Wister rats. The note with it: at 4 h effect; 10 mg kg^−1 indomethacin mol equivalent. In short, it runs like this:
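Wistar rats (120–150 g, n=6/group) received subplantar 1% carrageenan in the right hind paw, and DMSO-vehicle animals served as controls. Results are given as % inhibition of edema thickness versus control.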

For data set [4], the system named is Streptococcus pyogenes ATCC19615. Kind of data set: Antimicrobial MIC, agar dilution.
The subject of data set [5] is PC3 (prostate) carcinoma cell line. The experiment in a line: Anti-tumor properties, MTT. Format: cell-based. The note with it: Homo sapiens.
The subject of another data set is MCF-7 cells. Kind of data set: Effect on doxorubicin induced cytotoxicity (MTT). The method in brief: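 MCF-7 cells were exposed for 48 hr to 100 μM curcumin derivative alone or combined with 10 μM doxorubicin. Controls got medium, DMSO vehicle, or vehicle+doxorubicin. Percent viable cells was read by MTT assay.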
Setting [6] is: ATCC19615, 18 h, read-out: Minimum inhibitory concentration (MIC).
Where [7] appears, read: ATCC19615, read-out: Minimum inhibitory concentration (MIC).

The structures appear in SMILES notation. Where two headings read alike, the source gives them in different places.

`COc1cc(/C=C/C(=O)CC(=O)/C=C/c2ccc(OC(=O)[C@H](N)CCSC)c(OC)c2)ccc1OC(=O)[C@H](N)CCSC.Cl.Cl` [HCl-D-Met-Cur, (2R,2′R)-1,1′-((((1E,6E)-3,5-dioxohepta-1,6-diene-1,7-diyl)bis(2-methoxy-4,1-phenylene))bis(oxy))bis(4-(methylthio)-1-oxobutan-2-aminium) chloride]: in the data set with gastric mucosa, the “% Incidence of ulcer divided by 10” value stood at 0, the “Average of ulcer number” value was 0, the “Average severity of ulcer” value is on record as 0 and the “Number of animals with ulcer” value is 0/6. For the same compound, the Ulcer index with gastric mucosa is reported as 0. In data set [1], the “Potency (%): % inhibition of nitric oxide production relative to lipopolysaccharide-stimulated macrophages” value was 49.57% and the “Nitric oxide (nitrite) concentration, μM (average ± SD)” value is 13.77 ± 0.96 µM. In data set [2], half-maximal inhibition (IC50) required 20 µM. Besides, in data set [3], the “Potency (% inhibition of edema relative to that of indomethacin reference standard)” value amounted to 113. For the same compound, the MIC in data set [4] (setting [6]) came out at 0.25 µg/mL. Moreover, the MIC in data set [4] (setting [7]) turned out to be 0.355 µM. It took 41.5 µM to reach half-maximal inhibition in data set [5] (IC50).

`COc1cc(/C=C/C(=O)CC(=O)/C=C/c2ccc(OC(=O)C(C)NC(=O)OCc3ccccc3)c(OC)c2)ccc1OC(=O)C(C)NC(=O)OCc1ccccc1` (racemic) [Cbz-DL-Ala-Cur, ((1E,6E)-3,5-dioxohepta-1,6-diene-1,7-diyl)bis(2-methoxy-4,1-phenylene) bis(2-(((benzyloxy)carbonyl)amino)propanoate)]: in the data set with gastric mucosa, the “% Incidence of ulcer divided by 10” value is given as 3.33, the “Average of ulcer number” value turned out to be 0.67, the “Average severity of ulcer” value was 0.67 and the “Number of animals with ulcer” value is on record as 2/6. Further, in the data set with gastric mucosa, the Ulcer index stood at 4.67. Besides, in data set [1], the “Potency (%): % inhibition of nitric oxide production relative to lipopolysaccharide-stimulated macrophages” value is 45.41% and the “Nitric oxide (nitrite) concentration, μM (average ± SD)” value amounted to 14.91 ± 0.62 µM. In addition, the “Potency (% inhibition of edema relative to that of indomethacin reference standard)” value in data set [3] amounted to 115. Moreover, the MIC in data set [4] (setting [6]) was 0.125 µg/mL. Also, the MIC in data set [4] (setting [7]) amounted to 0.161 µM. Besides, the “Percentage of viable cells MCF-7 (average ± SD)” value in the data set with MCF-7 cells (10 μM DOX in combination with 100 μM curcumin derivative, 48 hr) stood at 45.70 ± 2.23. In the data set on MCF-7 cells (Homo sapiens, MCF7, 48 h, read-out: Percentage of viable cells MCF-7 (average ± SD)), the viability at 100 µM turned out to be 98.8 ± 4.55%.

For the origin of these results see patent US10660967B2, “Curcumin conjugates and methods of use thereof” (priority 2016, dated 2020).
